Ends that are not written are not given here.
Tests used:
[1] = Macromolecular leakage assay (release of 40 kDa TAMRA-biotin-dextran from lipid vesicles); assay type: biochemical; settings: for dextran release at pH 7: peptide to lipid ratios as high as 1:50
Protocol: (§1) Large unilamellar vesicles for leakage assays were prepared as previously described (37) in 100 mM potassium chloride, with 10 mM sodium phosphate or 10 mM sodium acetate buffer. For small molecule leakage, lipids, dried from chloroform, were resuspended in buffer made of: 12.5 mM ANTS, 45 mM DPX, 5 mM HEPES, and 20 mM sodium chloride. For macromolecular leakage assays, lipids were resuspended in buffer with 1 mg/ml TAMRA-biotin-dextran (TBD). Lipid suspensions were frozen and thawed ten times and then extruded 10 times using a 0.1 um pore size Nuclepore polycarbonate filter (38). After extrusion, external ANTS and DPX were removed by gel filtration with Sephadex G100. External TBD was removed using streptavidin agarose resin.
As described previously (33), 40 nM Alexafluor488-labelled streptavidin (SA) was added to a solution of vesicles with entrapped TBD. This solution was added to wells of a 96-well plate containing peptide, and the plate was incubated for 60 min. Release of the 40 kDa dextran enables TBD-SA complex formation, which leads to quenching of the AF488 fluorescence (excitation 495 nm, emission at 519 nm) by TAMRA. The fraction of macromolecule leakage was determined by Equation 2:
[formula] where I is the intensity at 60 min, Ibackground is the intensity of a vesicle control with no peptide, and Itriton is the intensity in the presence of vesicles and 0.1% v/v of the detergent Triton X-100, added to solubilize the vesicles and release the ANTS.
Step 4: Next, to the same wells, a different preparation of vesicles was added. These vesicles have entrapped 40 kDa TBD and external Alexafluor488 streptavidin. The TBD vesicles were in sodium acetate buffer at pH 4 so that the final pH in each well was 5.0. This second addition of vesicles increased the total volume to 200 μl which decreased peptide to 2.5 μM and decreased ANTS vesicle concentration to 0.5 mM. The new TBD vesicles were present at 1.5 mM so that the total peptide to total lipid ratio was roughly about 1:800.
Step 5: After 60 minutes, the intensity of the AF488-streptavidin was measured to quantitate macromolecule release, which is calculated with equation 2. This orthogonal and sequential screen gives two measurements that are used to identify peptides with the desired properties: i) Small molecule release at pH 7 and P:L=1:200; ii) Macromolecule release at pH 5 and P:L=1:800.
Verification of positive peptides. Since the selected peptides are very similar to each other, a subset of them were synthesized and purified for detailed validation. Tested peptides included four representative sequences with five acidic residues, pHD24, pHD34, pHD108 and pHD118 as well as pHD15, one of the two with six acidic residues. Because there is interest in pH-triggered macromolecule release at low pH, the positive peptides were validated with the macromolecular release assay using 40 kDa dextran and 53 kD streptavidin, described above. Dextran leakage was measured as functions of peptide concentration and pH using vesicles made from phosphatidylcholine lipids.

[2] = Small molecule leakage assay (ANTS/DPX release from lipid vesicles); assay type: biochemical; settings: screen conditions
Protocol: as §1, with “External TBD was removed using streptavidin agarose resin.” left out
Lipid vesicles with entrapped ANTS and DPX were diluted into wells of a 96 well plate containing peptide. After 30 minutes, vesicle permeabilization was measured by an increase in ANTS fluorescence, with excitation at 350 nm and emission at 519 nm. Fractional leakage was quantified using Equation 1: […]
Step 2: Aliquots of peptides in water from the plate in Step 1 were added to wells of a second plate, followed by addition of 1 mM lipid vesicles in 100 μl of sodium phosphate buffer at pH 7. […] Leakage, if it occurs, causes an increase in fluorescence of ANTS. […]
Step 3: After 30 minutes of incubation, ANTS fluorescence was measured for each well to quantitate small molecule release using equation 1.

[3] = Circular dichroism spectroscopy of peptide secondary structure in the presence of vesicles versus pH; assay type: physicochemical; settings: P:L=1:200
Protocol: FIGS. 5A-5B are graphs depicting example binding and folding data. FIG. 5A: Circular dichroism spectra of pHD108 (SEQ ID NO: 9) versus pH at P:L=1:200 in 1 mM POPC vesicles. Separate samples are made at each pH and equilibrated for 30 minutes prior to the measurement. The spectra show a structural transition from random coil at pH 7 to classical α-helix at pH<5.75. FIG. 5B: Tryptophan fluorescence spectra of pHD108 at P:L=1:200 in 1 mM POPC vesicles. Separate samples are made at each pH and equilibrated for 30 minutes prior to the measurement. The spectra show a transition from a more polar, water-exposed environment to a less polar or buried environment consistent with peptide partitioning into bilayers.
Peptide secondary structure in the presence of vesicles as a function of pH was studied by circular dichroism spectroscopy. Example CD spectra for pHD108 at P:L=1:200 are seen in FIG. 5A and show a pH-triggered transition from random coil to α-helical structure with an effective pKa around 5.5. Circular dichroism was measured in a JASCO 810 spectropolarimeter. Samples in buffers of various pH were prepared by mixing peptide and vesicle solutions, each prepared at the needed pH. Spectra were collected on samples of 2 mM vesicles and 10 μM peptide in 1 mm path rectangular quartz cuvette after 1 hour of equilibration.

[4] = test system: Chinese Hamster Ovary cells; assay: Cell viability, Alamar Blue assay; assay type: cell-based; settings: ten minutes with peptide at pH 5 or pH 7, overnight recovery; except at the highest concentration
Protocol: FIGS. 7A-7B are graphs showing the effect of peptides on the viability Chinese Hamster Ovary cells incubated with either the lytic peptide MelP5, or the pH-triggerred membrane permeabilizing peptide pHD108. Cells were grown to 50% confluency, and then treated for ten minutes with peptide in cell culture media at pH 5 (FIG. 7A) or at pH 7 (FIG. 7B). Full media with growth factors was added and the cells recovered overnight. Viability was assessed with the Alamar Blue assay. The values were normalized to cells treated with media only (negative control) and media only, no cells (positive control).

With “GIGAVLKVLATGLPALISWIKAAQQL [MelP5, synthetically evolved gain-of-function variant of melittin, non pH-sensitive macromolecular pore-former]” as the substance, how does the macromolecule release ([1]; screen conditions, 1 nmol, all pH values) read?
The macromolecule release was “partial”.

And the “release of macromolecule probe (TBD)” value ([1]; screen conditions, 4 nmol (P:L=1:100))?
Its value is “essentially complete release”.

What about the “release of small molecule probe (ANTS)” value ([2]; 4 nmol) of the same substance?
The value was “essentially complete release”.

Which “dextran release at pH 7” value [1] does the source give for GIGDVLHELAADLPELQEWIHAAQQL [pHD24] here?
The value was “no activity”.

Which “apparent pKa of macromolecule leakage (curve midpoints)” value ([1]; P:L=1:200, 1 mM POPC vesicles, 40 kDa dextran) does the source give for GIGEVLHELADDLPDLQEWIHAAQQL [pHD15] here?
Its value is “lowest apparent pKa value”.

And the “dextran release at pH 7” value [1]?
Its value is “no activity”.

Which “effective pKa of transition from random coil to α-helical structure” value [3] does the source give for GIGEVLHELAEGLPELQEWIHAAQQL [pHD108] here?
Its value is “around 5.5”.

What about the “toxicity to mammalian cells” value [4] of the same substance?
Its value is “did not exhibit toxicity”.

Which “release of macromolecule probe (TBD)” value ([1]; screen conditions, 0.1% v/v) does the source give for Triton X-100 here?
Its value is “essentially complete release”.

And the “release of small molecule probe (ANTS)” value ([2]; 0.1% v/v)?
Its value is “essentially complete release”.

Source: patent publication US11149068B2, “Pore-forming peptides and uses thereof” (The Administrators of the Tulane Educational Fund, priority 2018, dated 2021)
